Test results published in patent US20050090559A1, “Heterocyclically-substituted pentanol derivatives, process for their production and their use as anti-inflammatory agents” (priority 2003, published 2005).

Biological target: T1, glucocorticoid receptor (GR) (Homo sapiens, UniProt P04150)
T1 construct: made in house; host or cells: Sf9 cells infected with recombinant baculovirus (cytosol preparation)
T1 sequence (P04150 1-777): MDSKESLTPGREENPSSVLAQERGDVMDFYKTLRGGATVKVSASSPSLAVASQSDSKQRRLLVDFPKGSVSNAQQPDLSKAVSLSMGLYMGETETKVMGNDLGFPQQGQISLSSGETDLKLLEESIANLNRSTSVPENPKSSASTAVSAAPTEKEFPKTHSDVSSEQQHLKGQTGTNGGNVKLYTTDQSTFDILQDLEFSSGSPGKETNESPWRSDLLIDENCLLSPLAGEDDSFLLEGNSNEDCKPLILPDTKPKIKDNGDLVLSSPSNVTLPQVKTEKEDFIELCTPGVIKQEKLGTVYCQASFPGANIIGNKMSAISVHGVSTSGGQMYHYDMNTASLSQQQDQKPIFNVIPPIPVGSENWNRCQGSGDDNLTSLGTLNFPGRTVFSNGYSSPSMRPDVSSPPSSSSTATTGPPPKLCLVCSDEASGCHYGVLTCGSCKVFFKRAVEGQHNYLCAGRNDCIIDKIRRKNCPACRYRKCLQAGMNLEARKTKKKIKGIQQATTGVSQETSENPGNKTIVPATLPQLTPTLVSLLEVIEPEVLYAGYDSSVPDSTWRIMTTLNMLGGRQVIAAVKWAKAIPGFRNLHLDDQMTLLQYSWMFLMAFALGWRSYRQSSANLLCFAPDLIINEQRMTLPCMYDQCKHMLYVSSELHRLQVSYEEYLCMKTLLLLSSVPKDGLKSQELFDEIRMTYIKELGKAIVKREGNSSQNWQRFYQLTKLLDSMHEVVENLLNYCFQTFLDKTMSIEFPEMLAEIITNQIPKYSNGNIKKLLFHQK
Test: Binding to recombinantly produced glucocorticoid receptor, cytosol preparations of Sf9 cells, vs [3H]-dexamethasone
Conditions: recombinant GR
From the text: The binding of the substances to the glucocorticoid receptor (GR) and other steroid hormone receptors (mineral corticoid receptor (MR), progesterone receptor (PR) and androgen receptor (AR)) is examined with the aid of recombinantly produced receptors. Cytosol preparations of Sf9 cells, which had been infected with recombinant baculoviruses, which code for the GR, are used for the binding studies. In comparison to reference substance [^3H]-dexamethasone, the substances show a high to very high affinity to GR.
Moreover, the compounds of formula (I) substituted by quinazolines, quinoxalines, cinnolines, indazoles, phthalazines, naphthyridines, benzothiazoles, dihydroindolones, dihydroisoindolones, benzimidazoles and indoles that are described here show a high selectivity for the glucocorticoid receptor.

IC50 [nM]	SMILES
1.8	COc1ccc(F)cc1C(C)(C)CC(O)(CNc1cccc2nc(C)ncc12)C(F)(F)F (centres unmarked) [Example 2, 4-(5-Fluoro-2-methoxyphenyl)-4-methyl-1-(2-methylquinazolin-5-ylamino)-2-(trifluoromethyl)-pentan-2-ol]
10	COc1cc(Cl)ccc1C(C)(C)CC(O)(CNc1ccnc2nc(C)ccc12)C(F)(F)F (centres unmarked) [Example 52, 4-(4-Chloro-2-methoxyphenyl)-4-methyl-1-(2-methyl-1,8-naphthyridin-5-ylamino)-2-(trifluoromethyl)pentan-2-ol]
